Data published in patent US11932652B2, “Pyrrolidinyl urea derivatives and application thereof in TrkA-related diseases” (ZHANGZHOU PIEN TZE HUANG PHARMACEUTICAL CO., LTD., priority 2018, dated 2024).

Columns and labels:
[1] = test system: plasma protein; experiment: Plasma protein binding rate (PPB) test, human plasma; format: in vitro ADME; conditions: 2 μM, dialysis 37° C. 4 hours
Method: (§1) The protein binding rates of the test compound in the plasma of humans, SD rats and Beagle dogs were determined.
(§2) 796 μL of blank plasma from humans, SD rats and Beagle dogs (plasma purchased from BioreclamationIVT) were taken, 4 μL of working solution of the test compound (400 μM) or warfarin working solution (400 μM) was added and the final concentration of the test compound or warfarin was 2 μM. The sample was mixed thoroughly. The final concentration of organic phase DMSO was 0.5%; 50 μL of the plasma sample treated with the test compound or warfarin was pipetted into the sample receiving plate, and a corresponding volume of blank plasma or buffer was added immediately so that the final volume in each sample well was 100 μL, the volume ratio of plasma:dialysis buffer was 1:1; 400 μL of stop solution was added to these samples, and these samples were used as T0 samples for recovery and stability determination. To samples were stored at 2° C. to 8° C. for subsequent processing together with other dialyzed samples; 150 μL of the plasma sample treated with the test compound or warfarin was added into the dosing end of each dialysis hole, and 150 μL of blank dialysis buffer was added to the receiving end corresponding to the dialysis hole. Then the dialysis plate was sealed with gas-permeable membrane and placed in a humidified 5% CO2 incubator, and incubated at 37° C. with 100 rpm shaking for 4 hours. After the dialysis, 50 μL of the dialysis buffer sample and the dialysis plasma sample was transferred to a new sample receiving plate. […] All samples were analyzed by LC/MS/MS after protein precipitation, and the plasma protein unbound rate, binding rate and recovery rate was calculated according to the following formula: % unbound rate=100*free compound concentration at the membrane buffer side/total compound concentration at the membrane plasma side, % protein binding rate=100-% unbound rate, % recovery rate=100*(free compound concentration at the membrane buffer side+total compound concentration at the membrane plasma side)/total compound concentration before dialysis.

[2] = test system: plasma protein; experiment: Plasma protein binding rate (PPB) test, SD rat plasma; format: in vitro ADME; conditions: 2 μM, dialysis 37° C. 4 hours
Method: as §1, §2

[3] = target: T1, CYP2C19 (Homo sapiens, UniProt P33261); experiment: Cytochrome P450 isozyme inhibitory activity test, CYP2C19; format: in vitro ADME; conditions: heading: Cytochrome P450 isozyme IC50, CYP2C19; human liver microsome
T1 construct: from tissue; host or cells: human liver microsomes
Method: (§3) Determination of the inhibitory activity of the test compound on different human cytochrome P450 isozymes.
(§4) The test compound, standard inhibitor (100×final concentration), and a mixed substrate working solution were prepared; the microsome frozen in −80° C. refrigerator was thawed. 2 μL of the test compound and standard inhibitor solution was added to the corresponding wells, and at the same time 2 μL of the corresponding solvent was added to the non-inhibitor control wells (NIC) and blank control wells (Blank) wells; then 20 μL of mixed substrate solution was added to the corresponding wells, except for the Blank wells (20 μL of PB was added to the Blank wells); a human liver microsome solution was prepared (put back into the refrigerator immediately after using and marking the date), and then 158 μL of the human liver microsome solution was added to all wells; the above sample plate was placed in a 37° C. water bath for pre-incubation, then the coenzyme factor (NADPH) solution was prepared; 10 minutes later, 20 μL of the NADPH solution was added to all wells, and the sample plate was shaken well, placed in a 37° C. water bath and incubated for 10 minutes; at the corresponding time point, 400 μL of cold acetonitrile solution (internal standard: 200 ng/mL tolbutamide and labetalol) was added to terminate the reaction; the sample plate was evenly mixed, centrifuged at 4000 rpm for 20 minutes to precipitate proteins; 200 μL of the supernatant was added to 100 μL of water, shook well, and tested by LC/MS/MS.

[4] = target: T2, CYP3A4 (Homo sapiens, UniProt P08684); experiment: Cytochrome P450 isozyme inhibitory activity test, CYP3A4; format: in vitro ADME; conditions: heading: Cytochrome P450 isozyme IC50, CYP3A4; human liver microsome
T2 construct: from tissue; host or cells: human liver microsomes
Method: as §3, §4

[5] = In vivo pharmacokinetics in rats after single administration; conditions: male, Sprague-Dawley, rat, plasma, 10 mg/kg, 10 mpk oral administration
Method: Male SD rats were used as test animals, and the concentration of the compound in blood was determined after single administration to evaluate the pharmacokinetic behavior.
Sprague Dawley rats (male, 200-300 g, 7-9 weeks, Shanghai Charles River Laboratory Animal Co., Ltd.)
The pharmacokinetic characteristics of the test compound in rodents after intravenous injection and oral administration were tested by standard protocols, in the experiment, the test compound was prepared into a clear solution or homogeneous suspension, and administered to the rats by single intravenous injection and oral administration. In the intravenous injection group, the menstruum was a certain proportion of ethanol and physiological saline solution or a certain proportion of dimethyl sulfoxide in HP-β cyclodextrin solution (pH was adjusted to 3-4), the mixture was vortexed and stirred to prepare 2 mg/mL or 1 mg/mL clear solution, then filtered with microporous membrane for later use; in the oral administration group, the menstruum was a certain proportion of sodium carboxymethyl cellulose solution or a certain proportion of dimethyl sulfoxide in HP-0 cyclodextrin solution (pH was adjusted to about 4), after the test compound was mixed with the solvent, the mixture was vortexed and stirred to prepare 2 mg/mL or 1 mg/mL homogeneous suspension or clear solution for later use. After 2 mg/kg intravenous administration or 10 mg/kg oral administration to rats, a certain amount of whole blood samples were collected, centrifuged at 3000 g for 15 minutes, the supernatant was separated to give the plasma samples; then an acetonitrile solution containing internal standard with a volume 3 times that of the plasma sample was added to precipitate proteins, and then centrifuged; the supernatant was separated, and water with a volume twice that of the supernatant was added to the supernatant, which was then centrifuged again; the supernatant was collected for analysis; LC-MS/MS analysis method was used to quantitatively analyze the blood drug concentration, and Phoenix WinNonlin software (Pharsight, USA) was used to calculate the pharmacokinetic parameters, such as peak concentration, time to peak concentration, clearance rate, half-life, area under the concentration-time curve, bioavailability, etc.
Among them, C0 is the initial concentration, T1/2 is the elimination half-life, Vdss is the steady-state apparent volume of distribution, Cl is the total clearance rate, AUC0-inf is the area under the plasma drug concentration-time curve from time 0 to infinity, Cmax is the peak concentration, Tmax is the time to peak concentration.

T2 sequence (P08684 whole entry): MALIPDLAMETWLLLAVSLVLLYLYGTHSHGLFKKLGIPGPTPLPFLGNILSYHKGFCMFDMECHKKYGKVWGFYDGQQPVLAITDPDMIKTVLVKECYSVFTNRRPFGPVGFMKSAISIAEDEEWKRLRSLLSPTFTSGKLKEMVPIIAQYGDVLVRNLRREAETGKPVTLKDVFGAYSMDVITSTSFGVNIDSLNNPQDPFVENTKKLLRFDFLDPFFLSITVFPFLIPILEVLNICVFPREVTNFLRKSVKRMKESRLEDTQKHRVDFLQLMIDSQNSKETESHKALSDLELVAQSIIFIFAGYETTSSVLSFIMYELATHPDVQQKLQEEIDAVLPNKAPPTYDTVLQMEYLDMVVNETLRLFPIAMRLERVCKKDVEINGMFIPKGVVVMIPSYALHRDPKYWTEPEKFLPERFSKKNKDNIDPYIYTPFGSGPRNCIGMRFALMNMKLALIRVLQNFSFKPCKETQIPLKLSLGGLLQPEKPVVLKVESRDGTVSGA
T1 sequence (P33261 whole entry): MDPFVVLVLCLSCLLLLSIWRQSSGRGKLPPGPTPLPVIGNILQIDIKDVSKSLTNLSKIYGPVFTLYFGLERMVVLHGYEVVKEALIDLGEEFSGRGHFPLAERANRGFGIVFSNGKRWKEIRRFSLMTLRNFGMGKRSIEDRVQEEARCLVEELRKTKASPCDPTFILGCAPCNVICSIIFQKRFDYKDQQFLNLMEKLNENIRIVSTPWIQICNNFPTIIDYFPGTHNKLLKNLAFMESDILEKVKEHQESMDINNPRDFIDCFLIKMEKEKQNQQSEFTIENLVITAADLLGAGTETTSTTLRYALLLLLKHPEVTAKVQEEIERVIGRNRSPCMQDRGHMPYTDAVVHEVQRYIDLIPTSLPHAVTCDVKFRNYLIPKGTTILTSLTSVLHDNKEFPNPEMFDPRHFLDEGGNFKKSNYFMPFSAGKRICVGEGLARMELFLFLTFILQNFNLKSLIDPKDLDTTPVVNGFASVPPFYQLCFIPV

Compound: COCCN1C[C@@H](n2ccc(F)c2)[C@H](NC(=O)Nc2c(C)c(-c3cnc(C4(F)COC4)nc3)nn2-c2ccccc2)C1 [Compound 7]
- Plasma protein unbound rate, Human plasma [1]: 13.2%
- Plasma protein unbound rate, SD Rat plasma [2]: 7.1%
- IC50 [3]: > 50 µM
- IC50 [4]: > 50 µM
- AUC(0-inf) [5]: 3.24 µM·h
- Cmax [5]: 1790 nM
- Tmax [5]: 0.63 h
- bioavailability [5]: 24.8%
- half-life [5]: 1.6 h
